According to US20020082273A1, “Agents for use in the treatment of alzheimer's disease” (priority 1998, published 2002):
Several values for one entry are separate records, joined by “and”; a condition that tells them apart may be missing. Equal entries are not always repeated.

Experiments:
[1] = Metal reduction assay, Cu^2+ to Cu^+; assay type: biochemical; details: 10 μM Cu^2+, PBS pH 7.4, 1 hr 37° C.
Experimental: Aβ (10 μM in PBS, pH 7.4 or 6.8, as shown) was incubated for 30 minutes (37° C.) in the presence of Cu^2+10 μM ±Zn^2+ 10 μM). […] levels (n=3, ±SD) were assayed against a standard curve.
Polypeptides (10 μM) or Vitamin C (100 μM), metal ions (10 μM, Fe(NO3)3 or Cu(NO3)2), and reduced metal ion indicators, bathophenanthrolinedisulfonic acid (BP, for Fe^2+, Sigma, 200 μM) or bathocuproinedisulfonic acid (BC, for Cu^+, Sigma, 200 μM), were coincubated in phosphate buffered saline (PBS), pH 7.4, for 1 hr at 37° C. The metal ion solutions were prepared by direct dilution in the buffer from their aqueous stocks purchased from National Institute of Standards and Technology (NIST). […] In control samples, both metal ion and indicator were present to determine the background buffer signal. As a further control, both metal ion and peptide were present in the absence of indicator to estimate the contribution of light scattering due to turbidity to the absorbance reading at these wavelengths. The net absorbances (ΔA) at 536 nm or 483 nm were obtained by deducting the absorbances from these controls from the absorbances generated by the peptide and metal in the presence of the respective indicator.

[2] = Cu^2+-induced SDS-resistant polymerization of Aβ peptides, western blot image analysis; assay type: biochemical, human; details: for conversion of monomer to dimer / conversion of monomer to trimer: Cu^2+ 30 μM
Experimental: Following incubation (37° C.), aliquots of each reaction (2 ng peptide) were collected at 0 d, 1 d, 3 d and 5 d and western blotted using anti-Aβ monoclonal antibody 8E10 (FIG. 9). Migration of the molecular size markers are indicated (kDa). […] It should be noted that other means of visualizing and/or determining the presence or absence of polymerization other than western blot analysis may be used. Such other means include but are not limited to density sedimentation by centrifugation of the samples.
The generation of SDS-resistant Aβ polymers by metal ions was tested by incubating Cu^2+ (30 μM) or Zn^2+ (30 μM) at pH 6.6, 7.4 and 9.0 with Aβ1-40.
(0-30 μM) at pH 7.4 and 6.6 and the samples analyzed by Western blot and the signal quantitated using the Fluoro-S Image Analysis System (Bio-Rad, Hercules, Calif.) as previously described.

[3] = Aβ aggregation assay (soluble peptide after centrifugation); assay type: physicochemical, human
Experimental: Aβ stock was diluted to 2.5 μM in 150 mM NaCl and 20 mM glycine (pH 3-4.5), MES (pH 5-6.2) or HEPES (pH 6.4-8.8), with or without metal ions, incubated (30 min., 37° C.), centrifuged (20 min., 10000 g). The amount of protein in the supernatant was determined by the Micro BCA protein assay as described above.
The resultant aggregated particles were sedimented by centrifugation to permit determination of soluble Aβ1-40 in the supernatant. To determine the centrifugation time required to completely sediment the aggregated particles generated under these conditions, Aβ1-40 was incubated for 30 min at 37° C. with no metal, Zn^2+ (100 μM), Cu^2+ (100 μM) and pH (5.5). Reaction mixtures were centrifuged at 10000 g for different times, or ultracentrifuged at 100000 g for 1 h. (FIG. 1). […] Aβ1-40 was incubated (30 min., 37° C.) with no metal, under acidic conditions (pH 5.5), Zn^2+ (100 μM) or Cu^2+ (100 μM), and centrifuged at 10000 g for different time intervals, or at 100,000 g (ultracentrifuged) for 1 h for comparison. All data points are means ±SD, n=3.
Since the conformational state and solubility of Aβ is altered at different pH (Soto, C., et al., J. Neurochem. 63:1191-1198 (1994)), the effects of [H^+] on Zn^2+- and […] Aβ1-40 aggregation were studied. […] All data points are means ±SD, n=3. [H^+] alone precipitates Aβ1-40 (2.5 μM) as the solution is lowered below pH 7.4, and dramatically once the pH falls below 6.3 (FIG. 4A). At pH 5.0, 80% of the peptide is precipitated, but the peptide is not aggregated by acidic environments below pH 5, confirming and extending earlier reports on the effect of pH on Aβ solubility (Burdick, D., J. Biol. Chem. 267:546-554 (1992)). Zn^2+ (30 μM) induced a constant level (˜50%) of aggregation between pH 6.2-8.5, while below pH 6.0, aggregation could be explained solely by the effect of [H^+].

Aβ1-40: synthetic human Aβ peptide, residues 1-40
reduction of available Cu^2+ [1]: 60%
conversion of monomer to dimer ([2]; pH 6.6, 5 d): 29%
conversion of monomer to trimer ([2]; pH 6.6, 5 d): 2%
conversion of monomer to dimer ([2]; pH 7.4, 5 d): 42%
conversion of monomer to trimer ([2]; pH 7.4, 5 d): 9%
peptide converted to SDS-resistant dimer ([2]; no added metal, pH 6.6, 7.4 or 9.0, 5 d): Less than 4%
SDS-resistant polymers: Dimer ([2]; pH 6.6, [Cu^2+] 0): 2.1
SDS-resistant polymers: Monomer ([2]; pH 6.6, [Cu^2+] 0): 97.9
SDS-resistant polymers: Pentamer ([2]; pH 6.6, [Cu^2+] 0): 0
SDS-resistant polymers: Tetramer ([2]; pH 6.6, [Cu^2+] 0): 0
SDS-resistant polymers: Trimer ([2]; pH 6.6, [Cu^2+] 0): <0.1
SDS-resistant polymers: Dimer ([2]; pH 6.6, [Cu^2+] 0.5): 2.2
SDS-resistant polymers: Monomer ([2]; pH 6.6, [Cu^2+] 0.5): 97.6
SDS-resistant polymers: Pentamer ([2]; pH 6.6, [Cu^2+] 0.5): 0
SDS-resistant polymers: Tetramer ([2]; pH 6.6, [Cu^2+] 0.5): 0
SDS-resistant polymers: Trimer ([2]; pH 6.6, [Cu^2+] 0.5): 0.2
SDS-resistant polymers: Dimer ([2]; pH 6.6, [Cu^2+] 1): 7.3
SDS-resistant polymers: Monomer ([2]; pH 6.6, [Cu^2+] 1): 92.6
SDS-resistant polymers: Pentamer ([2]; pH 6.6, [Cu^2+] 1): 0
SDS-resistant polymers: Tetramer ([2]; pH 6.6, [Cu^2+] 1): 0
SDS-resistant polymers: Trimer ([2]; pH 6.6, [Cu^2+] 1): 0.1
SDS-resistant polymers: Dimer ([2]; pH 6.6, [Cu^2+] 5): 9.8
SDS-resistant polymers: Monomer ([2]; pH 6.6, [Cu^2+] 5): 90.1
SDS-resistant polymers: Pentamer ([2]; pH 6.6, [Cu^2+] 5): 0
SDS-resistant polymers: Tetramer ([2]; pH 6.6, [Cu^2+] 5): 0
SDS-resistant polymers: Trimer ([2]; pH 6.6, [Cu^2+] 5): 0.1
SDS-resistant polymers: Dimer ([2]; pH 6.6, [Cu^2+] 10): 16.1
SDS-resistant polymers: Monomer ([2]; pH 6.6, [Cu^2+] 10): 79.4
SDS-resistant polymers: Pentamer ([2]; pH 6.6, [Cu^2+] 10): 0
SDS-resistant polymers: Tetramer ([2]; pH 6.6, [Cu^2+] 10): 0
SDS-resistant polymers: Trimer ([2]; pH 6.6, [Cu^2+] 10): 4.5
SDS-resistant polymers: Dimer ([2]; pH 6.6, [Cu^2+] 30): 13.2
SDS-resistant polymers: Monomer ([2]; pH 6.6, [Cu^2+] 30): 74.5
SDS-resistant polymers: Pentamer ([2]; pH 6.6, [Cu^2+] 30): 0
SDS-resistant polymers: Tetramer ([2]; pH 6.6, [Cu^2+] 30): 0
SDS-resistant polymers: Trimer ([2]; pH 6.6, [Cu^2+] 30): 12.2
increase in dimerization ([2]; pH 6.6, [Cu^2+] increased from 0.5 to 1 μM): over 3 fold
SDS-resistant polymers: Dimer ([2]; pH 7.4, [Cu^2+] 0): 3.2
SDS-resistant polymers: Monomer ([2]; pH 7.4, [Cu^2+] 0): 96.8
SDS-resistant polymers: Pentamer ([2]; pH 7.4, [Cu^2+] 0): 0
SDS-resistant polymers: Tetramer ([2]; pH 7.4, [Cu^2+] 0): 0
SDS-resistant polymers: Trimer ([2]; pH 7.4, [Cu^2+] 0): <0.1
SDS-resistant polymers: Dimer ([2]; pH 7.4, [Cu^2+] 0.5): 4.9
SDS-resistant polymers: Monomer ([2]; pH 7.4, [Cu^2+] 0.5): 94.8
SDS-resistant polymers: Pentamer ([2]; pH 7.4, [Cu^2+] 0.5): 0
SDS-resistant polymers: Tetramer ([2]; pH 7.4, [Cu^2+] 0.5): 0
SDS-resistant polymers: Trimer ([2]; pH 7.4, [Cu^2+] 0.5): 0.3
SDS-resistant polymers: Dimer ([2]; pH 7.4, [Cu^2+] 1): 5.9
SDS-resistant polymers: Monomer ([2]; pH 7.4, [Cu^2+] 1): 93.6
SDS-resistant polymers: Pentamer ([2]; pH 7.4, [Cu^2+] 1): 0
SDS-resistant polymers: Tetramer ([2]; pH 7.4, [Cu^2+] 1): 0
SDS-resistant polymers: Trimer ([2]; pH 7.4, [Cu^2+] 1): 0.6
SDS-resistant polymers: Dimer ([2]; pH 7.4, [Cu^2+] 5): 14.2
SDS-resistant polymers: Monomer ([2]; pH 7.4, [Cu^2+] 5): 84.3
SDS-resistant polymers: Pentamer ([2]; pH 7.4, [Cu^2+] 5): 0
SDS-resistant polymers: Tetramer ([2]; pH 7.4, [Cu^2+] 5): 0
SDS-resistant polymers: Trimer ([2]; pH 7.4, [Cu^2+] 5): 1.5
SDS-resistant polymers: Dimer ([2]; pH 7.4, [Cu^2+] 10): 13.2
SDS-resistant polymers: Monomer ([2]; pH 7.4, [Cu^2+] 10): 85.2
SDS-resistant polymers: Pentamer ([2]; pH 7.4, [Cu^2+] 10): 0
SDS-resistant polymers: Tetramer ([2]; pH 7.4, [Cu^2+] 10): 0
SDS-resistant polymers: Trimer ([2]; pH 7.4, [Cu^2+] 10): 1.6
SDS-resistant polymers: Dimer ([2]; pH 7.4, [Cu^2+] 30): 19.1
SDS-resistant polymers: Monomer ([2]; pH 7.4, [Cu^2+] 30): 76.2
SDS-resistant polymers: Pentamer ([2]; pH 7.4, [Cu^2+] 30): 0
SDS-resistant polymers: Tetramer ([2]; pH 7.4, [Cu^2+] 30): 0
SDS-resistant polymers: Trimer ([2]; pH 7.4, [Cu^2+] 30): 4.7
available peptide aggregated by Cu^2+ ([3]; Cu^2+ (30 μM), pH 6.8): > 85% and 85%
level of aggregation induced by Zn^2+ ([3]; Zn^2+ 30 μM, pH 6.2-8.5): ~50%
aggregation in the presence of Cu ([3]; pH 7.1): approx. 30%
